Key:
Format in all cases: in vivo, human
[1] = test system: tasters; assay: Reduced sugar soda syrup (strawberry soda) sensory evaluation; settings: scale 1 to 10
Protocol: 1000.00 g of the ⅔ sugared syrup comprising compound 23 was formulated in the following manner. Compound 23 was diluted with maltodextrin (1:100) to make a sweetener concentrate composition for addition to the soda syrup formulation. An alternative method is to make a solution of amide compound in propylene glycol that can be added directly into the liquid soda syrup formulation. A 100 g batch of dry sweetener concentrate composition was produced by weighing 1.000 g of the enhancer and 99.0000 g of 10 D.E. maltodextrin. 50 g of the maltodextrin was placed on the bottom of a clean and dried mortar and the 1.0000 g of amide compound was added and slowly mixed into the maltodextrin. In a planetary mixer with a wire whip attachment (KITCHEN AIDE™ Mixer), the rest of the maltodextrin was added to the mixing bowl, and the contents of the mortar was placed into the mixer and the mixer was turned on to a slow speed (setting 3). A rubber spatula was used to remove the contents of the mortar and the contents were allowed to mix for an additional 10 minutes. A rubber spatula was used to scrap the walls and bottom of the bowl. The mixture was blended on low for another 15 minutes. The […] sweetener concentrate composition was stored in an air tight amber glass container. […]

[2] = test system: tasters; assay: Reduced sugar ice cream sensory evaluation; settings: for Average Sweet Intensity Score: scale 1 to 10
Protocol: A water soluble liquid sweetener concentrate composition comprising 0.1% by weight of Example 23 in USP grade propylene glycol can be prepared by mixing the amide compound and propylene glycol by stirring the composition while warming to about 50° C., then milling the resulting liquid in a Silverson mill with a square basket cage at 300-600 rpms, to further ensure homogeneity of the liquid. An alternative method actually used was that the amide compound was dissolved in ethanol (1:1000 dilution), sonicated for 20 minutes, and 19.80 grams of the diluted sweet enhancer sample was added to the vanilla flavoring (which contains 20-30% ethyl alcohol) and sonicate that sample for an additional 20 minutes.
Heavy cream and whole milk were placed into a 5000 mL stainless steel cylinder and mixed using a LIGHTNIN™ Mixer at 500 to 650 rpms using a 2.5 inch (6.35 cm) impeller with three straight blades. A vortex was created by positioning the impeller blades at a 30 to 45° angle. The sweet enhancer was added using the vanilla/ethanol mixture. Some milk/cream was added back to the weigh dish of the sweet enhancer to ensure all the amide compound was removed from the weigh dish. The sugar/stabilizer mixture was slowly added to the vortex of the mixing milk/cream solution. The resulting solution was mixed for 10 minutes until the sugar dissolved and the stabilizer rehydrated. Care was taken to ensured that no lumps or undissolved stabilizer existed in the solution. The remaining sugar was added to the vortex and mixing was continued for an additional 10 minutes. Egg yolks and vanilla flavor were next added and the mixing continued for 5 more minutes.
Ice cream samples were evaluated by tasters, using a rank rating design. Tasters used an anchored scale from 1 to 10 (1 being no sweetness, 10 being intense sweetness). Three digit coded samples were randomized and the following samples were given to tasters: full sugar version, ⅔ sugared version, ⅔ sugared+3.3 ppm or 6.6 ppm of compound 23. Tasters were instructed to hold the ice cream samples in their mouth for at least 5 seconds, expectorate the sample, and evaluate/rank the “peak” of sweetness intensity.

[3] = test system: tasters; assay: Reduced sugar frosted breakfast cereal sensory evaluation; settings: for Avgage Sweet Intensity Score: scale 1 to 10
Protocol: A 100 gram sample of a solid sweetener concentrate composition was prepared from 1.000 g of compound 23 and 99.000 g of 10 D.E. maltodextrin. “DE” i.e. “[…]” is a measure of the degree of depolymerization of the corn starches used to manufacture maltodextrins. Fifty grams of the maltodextrin was placed on the bottom of a clean and dried mortar and the 1.000 gr of compound 23 was added to the maltodextrin and slowly ground and mixed into the maltodextrin. The remaining 50 grams of maltodextrin was added to a planetary mixer with a wire whip attachment (KITCHEN AIDE™ Mixer), then the contents of the mortar were placed into the mixer and the mixer was turned on to a slow speed (setting 3), and allowed to mix for 10 minutes. A rubber spatula was used to scrap the walls and bottom of the bowl, then the mixture was blended on low for another 15 minutes. The 100× diluted solid sweetener concentrate composition was stored in an air tight amber glass container. The contents were mixed in the glass container before taking out aliquots of the dry diluted sweet enhancer.
Using the KITCHEN AIDE™ Mixer with the wire whip attachment, the granulated sugar, powdered sugar, gum arabic, dextrin, and the 1:100 diluted sweetener concentrate composition were mixed at speed 3. Water and the HFCS were placed into a 1000 mL stainless steel cylinder and mixed using a LIGHTNIN™ Mixer at 500 to 650 rpms using a 2.5 inch (6.35 cm) impeller with three straight blades until the HFCS was dissolved (5 minutes). A vortex was created by positioning the impeller blades at a 30 to 45° angle. The dry/sugar/gum dry blend was added to the vortex very slowly and allowed to mix until the sugar dissolved and the gum rehydrated. An additional 10 minute mixing time was allowed after the last of the dry blend was added, to form the frosting. […]
Frosted corn flake cereal samples were evaluated using a rank rating design by tasters. […]

## CC(C)CNC(=O)C(C)(C)c1ccc(-c2cncc(C#N)c2)cc1 [Compound 23, 2-(4-(5-cyanopyridin-3-yl)phenyl)-N-isobutyl-2-methylpropanamide]
[1]; ⅔ sugared with HFCS strawberry soda + 1.0 ppm
  Average Sweet Intensity Score: 6.429
[1]; ⅔ sugared with HFCS strawberry soda + 1.3 ppm
  Average Sweet Intensity Score: 7.214
[2]; 3.3 ppm and 6.6 ppm in ⅔ sugared ice cream
  sweetness compared with ⅔ sugared control ice cream: scored higher in sweetness than the ⅔ sugared control sample
[2]; 6.6 ppm in ⅔ sugared ice cream
  sweetness compared with fully sugared ice cream: nearly as sweet as the fully sugared ice cream
[2]; ice cream samples containing compound 23
  Qualitative feedback of tasters: “slight lingering” and “slight delay of sweetness”
[2]; ⅔ sugared ice cream + 3.3 ppm
  Average Sweet Intensity Score: 5.143
[2]; ⅔ sugared ice cream + 6.6 ppm
  Average Sweet Intensity Score: 7.357
[3]; 9.6 ppm in frosting
  sweetness compared with fully sugar frosted cornflake control: almost as much sweetness as the fully sugar frosted cornflake control
[3]; ⅔ sugared frosted corn flakes + 6.6 ppm
  Avgage Sweet Intensity Score: 7.5
[3]; ⅔ sugared frosted corn flakes + 9.6 ppm
  Avgage Sweet Intensity Score: 7.81

From patent US7842324B2 (Senomyx, Inc., priority 2005, dated 2010)
